Publication PMC3977056, “Optimum Conditions of Radioligand Receptor Binding Assay of Ligands of Benzodiazepine Receptors” (Iranian Journal of Pharmaceutical Research : IJPR, 2014)

Assays:
[1] = target: T1, GABAA receptor, benzodiazepine (BZD) binding site (rat cortical membrane); assay: radioligand saturation binding, centrifugation separation
T1 construct: native receptor in cortical membrane of male Sprague-Dawley rats

[2] = target: T1, GABAA receptor, benzodiazepine (BZD) binding site (rat cortical membrane); assay: [3H]-flumazenil competition binding
[3] = target: T1, GABAA receptor, benzodiazepine (BZD) binding site (rat cortical membrane); assay: [3H]-flumazenil competition binding; […] used for nonspecific binding

SMILES: CCOC(=O)c1ncn2c1CN(C)C(=O)c1cc(F)ccc1-2 [[3H]-flumazenil]
- Kd [1]: 1.35 ± 0.316 nM

SMILES: Cc1cc(=O)n2nc(-c3ccccc3)oc2n1 [compound A, 2-phenyl-5-oxo-7-methyl-1,3,4-oxadiazolo[a,2,3]-pyrimidine]
- Ki [2]: 1.9 nM

SMILES: CN1C(=O)CN=C(c2ccccc2)c2cc(Cl)ccc21 [diazepam]
- Ki [3]: 1.53 nM
